The structures appear in SMILES notation.

As usually defined, the EC50 is the concentration needed to bring the measured effect to its halfway point.

Common to all, as to assay type: cell-based
In test [1] the test system is varicella-zoster virus (VZV TK+). The experiment in a line: microbe, parasite or virus in culture. The settings on record: Human alphaherpesvirus 3, HEL, read-out: EC50 (HEL cells) VZV TK+.
Test [2] relates to human cytomegalovirus (HCMV Davis strain). The experiment in a line: Antiviral activity against HCMV Davis in HEL cells. The settings on record: Human betaherpesvirus 5, HEL, read-out: EC50 (HEL cells) HCMV Davis.
The test system of the next test is Sindbis Virus (SINV). The test can be described thus: Antiviral activity against Sindbis virus in Vero cells. The following applies: read-out: EC50 (Vero cells) SINV, Vero cells, viral induced cytopathic effect.
The next test relates to yellow fever virus (YFV). The test can be described thus: microbe, parasite or virus in culture. The settings on record: Vero, read-out: EC50 (Vero cells) YFV.

Take `C/C(=C\CP(=O)(N[C@@H](C)C(=O)OC(C)C)Oc1cccc2ccccc12)Cn1cc(C)c(=O)[nH]c1=O` (stereo partly drawn) [E-8a, (E)-N^1-(4′-O-(1-Naphthyl)-(isopropyloxy-L-alanine)-phosphinyl-2′-methyl-but-2′-enyl)thymine]: the 50% effective concentration (EC50) in test [1] stood at 44.7 µM. For the molecule `Nc1ccn(C[C@@H](CO)OCP(=O)(O)O)c(=O)n1` [Cidofovir], the EC50 in test [2] is 0.76 µM. For `COc1c(C)c2c(c(O)c1C/C=C(\C)CCC(=O)O)C(=O)OC2` [Mycophenolic acid], the EC50 in the test with Sindbis Virus (SINV) and in the test with yellow fever virus (YFV) was 4 µM each time. On to `O=c1[nH]c(=O)n([C@H]2C[C@H](O)[C@@H](CO)O2)cc1/C=C/Br` [Brivudin], for which the EC50 in test [1] was 0.012 µM.
